Measurements taken from publication PMC6274026 (Molecules, 2016).
Where “and” joins values, the source holds several entries; their conditions need not be identical. Equal values may be shown once.

Legend:
[1] = system: MCF-7
[2] = system: MDA-MB-231
[3] = system: BT-549
[4] = system: MCF-10A
[5] = system: Lewis lung carcinoma; set-up: method as in ref 31 = [31]; 31. NCBI, National Center for Biotechnology Information PubChem BioAssay Database 2007 AID=192, 256 and 270 Available online: https://pubchem.ncbi.nlm.nih.gov/bioassay/192, 256, and 270 (accessed on 3); conditions: subcutaneous inoculation, in words; cited from earlier work
[6] = in vitro; conditions: human, Cytotoxic activity IC50, MCF-10A, 72 h, mean of three independent experiments ± S.D.
[7] = system: MCF-7; test: Clonogenicity (recovery) assay, 72 h post-treatment, SRB
[8] = system: MDA-MB-231; test: as above; conditions: MDA-MB-231, 10, 2, and 0.4 µg/mL, in words
[9] = system: BT-549; test: as above; conditions: BT-549, 10, 2, and 0.4 µg/mL, in words
[10] = system: MCF-10A; test: as above; conditions: MCF-10A, the four tested concentrations, in words

In the case of `COc1ccc([C@@H]2c3cc4c(cc3C[C@H]3COC(=O)[C@@H]32)OCO4)cc1OC` [Compound 3, 5′-demethoxydeoxypodophyllotoxin], the Selectivity index ([1]; IC50 MCF-10A / IC50 MCF-7) is reported as 2.33, the percentage of survival ([1]; MCF-7, 0.08 µg/mL, 72 h) is reported as 55% ± 9.9% and the “Potency compared to control POD” value ([1]; MCF-7, relative to POD) is reported as 0.449. The “Potency compared to control VP-16” value ([1]; MCF-7, relative to VP-16) was 3.124, the IC50 ([1]; read-out: Cytotoxic activity IC50, MCF-7, 72 h, mean of three independent experiments ± S.D.) was 40 ± 11 nM and the Selectivity index ([2]; IC50 MCF-10A / IC50 MDA-MB-231) was 0.64. The “Potency compared to control POD” value ([2]; MDA-MB-231, relative to POD) was 0.168, the “Potency compared to control VP-16” value ([2]; MDA-MB-231, relative to VP-16) was 0.268 and the IC50 ([2]; read-out: Cytotoxic activity IC50, MDA-MB-231, 72 h, mean of three independent experiments ± S.D.) was 145 ± 45 nM. The “Potency compared to control POD” value ([3]; BT-549, relative to POD) was 0.252, the “Potency compared to control VP-16” value ([3]; BT-549, relative to VP-16) was 7.6 and 7.661 and the “selectivity according to the selectivity criteria (SI ≥ 10 selective)” value ([3]; BT-549 vs MCF-10A, in words) was “non-selective compound”. The IC50 ([3]; read-out: Cytotoxic activity IC50, BT-549, 72 h, mean of three independent experiments ± S.D.) was 21 ± 3 nM, the IC50 ([4]; read-out: Cytotoxic activity IC50, 72 h, mean of three independent experiments ± S.D.) was 92 ± 9 nM and the “Potency compared to control POD” value ([4]; relative to POD) was 0.214. The “Potency compared to control VP-16” value ([4]; relative to VP-16) was 0.507, the “biological activity in Lewis lung carcinoma model” value [5] was “did not show biological activities” and the IC50 at 72 h [6] was 90 ± 9 nM. The percentage of recovery ([7]; MCF-7, 0.08 µg/mL, 72 h post-treatment) was 111% ± 13%, the “effect on proliferation and recovery after treatment” value (“effect on proliferation and recovery” below) ([7]; MCF-7, 10, 2, and 0.4 µg/mL, in words) was “cytotoxicity with a lack of recovery” and the “effect on proliferation and recovery” value [8] was “cytotoxicity with a lack of recovery”. For the same compound, the “effect on proliferation and recovery” value [9] was “cytotoxicity with a lack of recovery” and the “effect on proliferation in the cytotoxicity and clonogenicity assays” value [10] was “completely inhibited proliferation”.
